Common to all, as to assay type: functional
The test system of assay [1] is Staphylococcus aureus. Nature of the assay: Compound was tested in vitro for antibacterial activity against methicillin-resistant Staphylococcus aureus UC 6685.
A further assay has as its system Escherichia coli. In words: Compound was tested in vitro for antibacterial activity against Escherichia coli extracts, using cell free prokaryotic transcription coupled translation (T/T) assay. The arrangement: concentration or dose not given beside the values. To be noted: dose or concentration not given here.
Assay [2] relates to Staphylococcus epidermidis. In words: Compound was tested in vitro for antibacterial activity against methicillin-resistant Staphylococcus epidermidis UC 12084.
The test system of assay [3] is Staphylococcus aureus. Nature of the assay: Compound was tested in vitro for antibacterial activity against methicillin-susceptible Staphylococcus aureus UC 9213.
Another assay deals with Mus musculus. Nature of the assay: Amount of drug required (mg/kg body weight/dose) to cure 50% of infected mice subjected to a lethal systemic infection with Staphylococcus aureus UC 9213.
In a further assay the test system is Streptococcus pneumoniae. Nature of the assay: Compound was tested in vitro for antibacterial activity against Streptococcus pneumoniae UC 9912.
Assay [4] has as its system Mycobacterium tuberculosis. In words: Compound was tested in vitro for antibacterial activity against Mycobacterium tuberculosis H37 Rv.
Another assay has as its system Enterococcus faecalis. Nature of the assay: Compound was tested in vitro for antibacterial activity against Enterococcus faecalis UC 9217.

In brackets after ≈: the same amount, converted by molar mass.

The values below come from ChEMBL document CHEMBL1129745, “Synthesis and antibacterial activity of new tropone-substituted phenyloxazolidinone antibacterial agents 1. Identification of leads and importance of the tropone substitution pattern” (1996).

Turning to `COc1cc(-c2ccc(N3CC(CNC(C)=O)OC3=O)cc2)cccc1=O` (stereo not drawn), the MIC with Staphylococcus aureus [1] was 16 µg/mL (≈ 43.4 µM); in assay [2] it was 8 µg/mL (≈ 21.7 µM); in the assay with Staphylococcus aureus [3], 64 µg/mL (≈ 174 µM); against Streptococcus pneumoniae it was 4 µg/mL (≈ 10.9 µM); in assay [4], at most 16 µg/mL; in the assay with Enterococcus faecalis it was 32 µg/mL (≈ 86.9 µM). This compound registered an inhibition with Escherichia coli of 39%. For the same compound, the ED50 in the assay with Mus musculus was above 20 mg/kg.
`COc1ccc(-c2ccc(N3CC(CNC(C)=O)OC3=O)cc2)ccc1=O` (stereo not drawn): the MIC in the assay on Staphylococcus aureus [1] is 1 µg/mL (≈ 2.71 µM); in assay [2] it was 0.5 µg/mL (≈ 1.36 µM); in the assay on Staphylococcus aureus [3] it was 2 µg/mL (≈ 5.43 µM); against Streptococcus pneumoniae, 0.25 µg/mL (≈ 0.679 µM); in assay [4], at most 1 µg/mL; in the assay on Enterococcus faecalis, 1 µg/mL (≈ 2.71 µM). The compound further gave an inhibition in the assay on Escherichia coli of 89%.
Regarding `C#CCNc1cccc(-c2ccc(N3CC(CNC(C)=O)OC3=O)cc2)cc1=O` (stereo not drawn), the MIC is 1 µg/mL (≈ 2.55 µM) in the assay with Staphylococcus aureus [1]; 1 µg/mL (≈ 2.55 µM) in assay [2]; 2 µg/mL (≈ 5.11 µM) against Staphylococcus aureus [3]; 0.5 µg/mL (≈ 1.28 µM) against Streptococcus pneumoniae; at most 1 µg/mL in assay [4]; 1 µg/mL (≈ 2.55 µM) in the assay on Enterococcus faecalis. Also, in the assay on Escherichia coli, the inhibition came out at 76%. For the same compound, the ED50 with Mus musculus turned out to be 3.4 mg/kg.
Consider `CC(=O)NCC1CN(c2ccc(-c3ccc(N4CCOCC4)c(=O)cc3)cc2)C(=O)O1` (stereo not drawn), for which the MIC in the assay with Staphylococcus aureus [1] was 2 µg/mL (≈ 4.72 µM); in assay [2], 0.5 µg/mL (≈ 1.18 µM); against Staphylococcus aureus [3], 2 µg/mL (≈ 4.72 µM); against Streptococcus pneumoniae, 0.5 µg/mL (≈ 1.18 µM); in assay [4], at most 1 µg/mL; against Enterococcus faecalis, 1 µg/mL (≈ 2.36 µM). For the same compound, in the assay with Escherichia coli, the inhibition is 81%.
For the compound `C=CCNc1ccc(-c2ccc(N3CC(CNC(C)=O)OC3=O)cc2)ccc1=O` (stereo not drawn), the MIC against Staphylococcus aureus [1] is 1 µg/mL (≈ 2.54 µM); in assay [2] it was 0.5 µg/mL (≈ 1.27 µM); with Staphylococcus aureus [3], 2 µg/mL (≈ 5.08 µM); in the assay on Streptococcus pneumoniae it was 0.5 µg/mL (≈ 1.27 µM); in the assay on Enterococcus faecalis, 1 µg/mL (≈ 2.54 µM). In addition, in the assay on Escherichia coli, the inhibition is 81%. Besides, in the assay on Mus musculus, the ED50 turned out to be 12.7 mg/kg.
On to `C/N=c1\ccc(-c2ccc(N3CC(CNC(C)=O)OC3=O)cc2)ccc1O` (stereo not drawn), for which the MIC in the assay on Staphylococcus aureus [1] is 1 µg/mL (≈ 2.72 µM); in assay [2] it was 0.25 µg/mL (≈ 0.68 µM); in the assay on Staphylococcus aureus [3], 2 µg/mL (≈ 5.44 µM); with Streptococcus pneumoniae, 0.25 µg/mL (≈ 0.68 µM); against Enterococcus faecalis, 1 µg/mL (≈ 2.72 µM). Moreover, the 50% effect level in the assay with Mus musculus (ED50) was put at a dose of 4.6 mg/kg.
Take `C=CCOc1ccc(-c2ccc(N3CC(CNC(C)=O)OC3=O)cc2)ccc1=O` (stereo not drawn): the MIC against Staphylococcus aureus [1] stood at 1 µg/mL (≈ 2.54 µM); in assay [2], 0.5 µg/mL (≈ 1.27 µM); in the assay with Staphylococcus aureus [3], 4 µg/mL (≈ 10.1 µM); in the assay with Streptococcus pneumoniae, 0.25 µg/mL (≈ 0.634 µM); with Enterococcus faecalis, 2 µg/mL (≈ 5.07 µM). Further, in the assay with Escherichia coli, the inhibition was 74%. For the same compound, in the assay on Mus musculus, the ED50 worked out at 7.9 mg/kg.
For the compound `C=CCNc1cccc(-c2ccc(N3CC(CNC(C)=O)OC3=O)cc2)cc1=O` (stereo not drawn), the MIC is 1 µg/mL (≈ 2.54 µM) in the assay with Staphylococcus aureus [1]; 0.5 µg/mL (≈ 1.27 µM) in assay [2]; 2 µg/mL (≈ 5.08 µM) in the assay with Staphylococcus aureus [3]; 0.5 µg/mL (≈ 1.27 µM) with Streptococcus pneumoniae; 1 µg/mL (≈ 2.54 µM) in the assay on Enterococcus faecalis. The inhibition in the assay on Escherichia coli was 80%. This compound registered an ED50 in the assay with Mus musculus of 12.5 mg/kg.
Take `CN[C@H](CC(C)C)C(=O)N[C@H]1C(=O)N[C@@H](CC(N)=O)C(=O)N[C@H]2C(=O)N[C@H]3C(=O)N[C@H](C(=O)N[C@H](C(=O)O)c4cc(O)cc(O)c4-c4cc3ccc4O)[C@H](O)c3ccc(c(Cl)c3)Oc3cc2cc(c3O[C@@H]2O[C@H](CO)[C@@H](O)[C@H](O)[C@H]2O[C@H]2C[C@](C)(N)[C@H](O)[C@H](C)O2)Oc2ccc(cc2Cl)[C@H]1O` [VANCOMYCIN]: inhibition of growth against Streptococcus pneumoniae (MIC) required 0.5 µg/mL (≈ 0.345 µM).
Turning to `COc1cccc(-c2ccc(N3CC(CNC(C)=O)OC3=O)cc2)cc1=O` (stereo not drawn), the MIC was 2 µg/mL (≈ 5.43 µM) in the assay on Staphylococcus aureus [1]; 0.5 µg/mL (≈ 1.36 µM) in assay [2]; 4 µg/mL (≈ 10.9 µM) against Staphylococcus aureus [3]; 0.5 µg/mL (≈ 1.36 µM) against Streptococcus pneumoniae; at most 1 µg/mL in assay [4]; 2 µg/mL (≈ 5.43 µM) in the assay with Enterococcus faecalis. This compound showed an inhibition in the assay on Escherichia coli of 90%.
Turning to `CC(=O)NC[C@H]1CN(c2ccc(C(C)=O)cc2)C(=O)O1` (racemic) [DUP-721], the MIC in the assay on Staphylococcus aureus [1] was 4 µg/mL (≈ 14.5 µM); in assay [2], 2 µg/mL (≈ 7.24 µM); in the assay with Staphylococcus aureus [3], 8 µg/mL (≈ 29 µM); against Streptococcus pneumoniae it was 2 µg/mL (≈ 7.24 µM); in assay [4] it was at most 16 µg/mL; with Enterococcus faecalis it was 8 µg/mL (≈ 29 µM). In addition, the inhibition with Escherichia coli was 45%. Further, the 50% effect level in the assay with Mus musculus (ED50) was put at a dose of 9.4 mg/kg.
